The values below come from patent US12514251B2, “Fused heterocyclic compounds and their use as pest control agents” (priority 2020, dated 2026).

Common to all, as to type: in vivo
The subject of one test is Nilaparvata lugens. Description: Nilaparvata lugens, seedling dip method. The note with it: paddy seedling dip, third instar nymphs, 72 h after release, dead + moribund vs untreated control, read-out: percent mortality. The protocol: The seedling dip method was used for testing, wherein the required quantity of the compound was weighed and dissolved in a tube containing solvent solution. The tube was put on a vortex at 2000 rpm for 90 min for proper mixing, then diluted with 0.01% Triton-X solution to the desired test concentration.
Paddy seedlings were dipped in the compound solution for 10 seconds, shade dried for 20 min and then the seedlings were placed in glass test tubes with the roots kept in water. 15 third instar nymphs were released into each test tube and the tubes were kept in a plant growth chamber at a temperature of 25° C. and relative humidity of 75%. Observations on dead, moribund and alive nymphs were recorded 72 h after the release. Percent mortality was calculated by combining dead and moribund nymphs and comparing the result to the one of the untreated control.

The next test has as its system Plutella xylostella. Description: Plutella xylostella, leaf dip method. The note with it: foliar, cabbage leaf dip, second instar larvae, 72 h after release, dead + moribund vs untreated control, read-out: percent mortality. In short, it runs like this:
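Cabbage leaves were dipped for 10 s in compound diluted with 0.01% Triton-X, shade dried and offered singly to second instar larvae. Trays were held at 25° C. and 70% relative humidity. Dead plus moribund larvae were scored at 72 h, and percent mortality was expressed relative to untreated control.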

The subject of another test is Helicoverpa armigera. Description: Helicoverpa armigera, diet incorporation method. The note with it: third instar larvae, 96 h after release, dead + moribund vs untreated control, read-out: percent mortality. The protocol: (§1) The diet incorporation method was used, in which the required quantity of the test compound was weighed and dissolved in a tube containing solvent solution. The tube was put on a vortex at 2000 rpm for 90 min for proper mixing. Semi-synthetic diet was incorporated into this solution when the temperature was approximately 50° C. in the bioassay containers. Compound and diet were stirred thoroughly for proper mixing and allowed to cool for 30 min. The solidified diet was cut into equal pieces, and then each piece was transferred into one cell of a bio-assay tray. A single starved third instar larva was released into each of the cells of the bioassay trays and the tray was covered with a lid. The bio-assay trays were then kept under laboratory conditions at a temperature of 25° C. and a relative humidity of 70%. Observations on dead, moribund and alive larvae were recorded 96 h after the release of the larvae. Percent mortality was calculated by combining dead and moribund larvae and comparing the result to the one of the untreated control.

A further test concerns Spodoptera litura. Description: Spodoptera litura, diet incorporation method. The note with it: third instar larvae, 96 h after release, dead + moribund vs untreated control, read-out: percent mortality. The protocol:
as §1, with “covered with the lid. The” for “covered with a lid. The”, “release of larvae. Percent” for “release of the larvae. Percent”

For another test, the system named is Myzus persicae. Description: Myzus persicae, leaf dip method. The note with it: foliar, capsicum leaf dip, third instar nymphs, 72 h after release, dead + moribund vs untreated control, read-out: percent mortality. The protocol: The leaf dip method was used for testing, wherein the required quantity of the compound was weighed and dissolved in a tube containing solvent solution. The tube was put on a vortex at 2000 rpm for 90 min for proper mixing, then diluted with 0.01% Triton-X solution to the desired test concentration. Capsicum leaves were dipped in the compound solution for 10 seconds, shade dried for 20 min and then placed, with the abaxial side of the leaf up, in single cells of a bio-assay tray containing 4 ml of a 1% agar-agar solution. Known numbers of third instar nymphs, collected in petri plates, were released into the cell with the treated leaf and the cell was covered with a perforated lid for better aeration. The trays were kept in a plant growth chamber at a temperature of 25° C. and a relative humidity of 70%. Observations on dead, moribund and alive nymphs were recorded 72 h after the release. Percent mortality was calculated by combining dead and moribund nymphs and comparing the result with the one of the untreated control.

Usually mortality stands for the percentage killed. Consider `CCS(=O)(=O)c1ccc(-n2nccn2)nc1-c1ccn2nc(C(F)(F)F)cc2n1` [Compound 41, 5-(3-(ethylsulfonyl)-6-(2H-1,2,3-triazol-2-yl)pyridin-2-yl)-2-(trifluoromethyl)pyrazolo[1,5-a]pyrimidine], for which the mortality at 300 ppm with Nilaparvata lugens, in the test on Plutella xylostella and in the test with Helicoverpa armigera was ≥ 70% in each case.

Consider `CCS(=O)(=O)c1cc(-c2ccc(OC(F)(F)F)cc2)cnc1-c1ccn2nc(C(F)(F)F)cc2n1` [Compound 66, 5-(3-(ethylsulfonyl)-5-(4-(trifluoromethoxy)phenyl)pyridin-2-yl)-2-(trifluoromethyl)pyrazolo[1,5-a]pyrimidine], for which the mortality at 300 ppm with Spodoptera litura, in the test with Plutella xylostella and with Helicoverpa armigera was ≥ 70% in each case.

For `CCS(=O)(=O)c1cc(-c2ccc(F)cc2)cnc1-c1ccn2nc(C(F)(F)F)cc2n1` [Compound 94, 5-(3-(ethylsulfonyl)-5-(4-fluorophenyl)pyridin-2-yl)-2-(trifluoromethyl)pyrazolo[1,5-a]pyrimidine], the mortality at 300 ppm with Spodoptera litura, in the test with Plutella xylostella and with Helicoverpa armigera was ≥ 70% in each case.

For the molecule `CCS(=O)(=O)c1cc(-c2ccc(Cl)c(Cl)c2)cnc1-c1ccn2nc(C(F)(F)F)cc2n1` [Compound 155, 5-(5-(3,4-dichlorophenyl)-3-(ethylsulfonyl)pyridin-2-yl)-2-(trifluoromethyl)pyrazolo[1,5-a]pyrimidine], the mortality at 300 ppm in the test on Spodoptera litura, with Plutella xylostella and with Helicoverpa armigera was ≥ 70% in each case.

Turning to `CCS(=O)(=O)c1cc(-c2ccn3nc(C(F)(F)F)cc3n2)cnc1-n1nccn1` [Compound 39, 5-(5-(ethylsulfonyl)-6-(2H-1,2,3-triazol-2-yl)pyridin-3-yl)-2-(trifluoromethyl)pyrazolo[1,5-a]pyrimidine], the mortality at 300 ppm in the test with Spodoptera litura, in the test on Plutella xylostella and with Helicoverpa armigera was ≥ 70% each time.

With `CCS(=O)(=O)c1cc(Br)cnc1-c1ccn2nc(C(F)(F)F)cc2n1` [Compound 29, 5-(5-bromo-3-(ethylsulfonyl)pyridin-2-yl)-2-(trifluoromethyl)pyrazolo[1,5-a]pyrimidine], the mortality at 300 ppm with Spodoptera litura, in the test on Plutella xylostella and in the test on Helicoverpa armigera was ≥ 70% throughout.

Turning to `CCCNc1ccc(S(=O)(=O)CC)c(-c2ccn3nc(C(F)(F)F)cc3n2)n1` [Compound 244, 5-(ethylsulfonyl)-N-propyl-6-(2-(trifluoromethyl)pyrazolo[1,5-a]pyrimidin-5-yl)pyridin-2-amine], the mortality at 300 ppm with Myzus persicae and with Plutella xylostella was ≥ 70% in each case.

For the molecule `CCS(=O)(=O)c1cc(-c2ccc(OC(F)(F)F)cc2)cnc1-c1ccn2nc(C(F)(F)F)nc2n1` [Compound 100, 5-(3-(ethylsulfonyl)-5-(4-(trifluoromethoxy)phenyl)pyridin-2-yl)-2-(trifluoromethyl)-[1,2,4]triazolo[1,5-a]pyrimidine], the mortality at 300 ppm with Spodoptera litura, in the test with Plutella xylostella and in the test with Helicoverpa armigera was ≥ 70% throughout.

On to `CCS(=O)(=O)c1cc(-c2ncccn2)cnc1-c1ccn2nc(C(F)(F)F)cc2n1` [Compound 231, 5-(3-(ethylsulfonyl)-5-(pyrimidin-2-yl)pyridin-2-yl)-2-(trifluoromethyl)pyrazolo[1,5-a]pyrimidine], for which the mortality at 300 ppm in the test on Spodoptera litura, in the test on Plutella xylostella and in the test with Helicoverpa armigera was ≥ 70% each time.

Regarding `CCS(=O)(=O)c1cc(-c2cc(F)cc(Cl)c2)cnc1-c1ccn2nc(C(F)(F)F)cc2n1` [Compound 111, 5-(5-(3-chloro-5-fluorophenyl)-3-(ethylsulfonyl)pyridin-2-yl)-2-(trifluoromethyl)pyrazolo[1,5-a]pyrimidine], the mortality at 300 ppm with Spodoptera litura, with Plutella xylostella and in the test on Helicoverpa armigera was ≥ 70% throughout.

`CCS(=O)(=O)c1cc(O)cnc1-c1ccn2nc(C(F)(F)F)nc2n1` [Compound 109, 5-(ethylsulfonyl)-6-(2-(trifluoromethyl)-[1,2,4]triazolo[1,5-a]pyrimidin-5-yl)pyridin-3-ol]: in the test on Myzus persicae, the mortality at 300 ppm is ≥ 70%.

On to `CCS(=O)(=O)c1cc(OC(C)(C)C(N)=O)cnc1-c1ccn2nc(C(F)(F)F)cc2n1` [Compound 220, 2-((5-(ethylsulfonyl)-6-(2-(trifluoromethyl)pyrazolo[1,5-a]pyrimidin-5-yl)pyridin-3-yl)oxy)-2-methylpropanamide], for which the mortality at 300 ppm in the test with Myzus persicae and in the test with Plutella xylostella was ≥ 70% in each case.

As for `CCS(=O)(=O)c1ccc(N)nc1-c1ccn2nc(C(F)(F)F)cc2n1` [Compound 174, 5-(ethylsulfonyl)-6-(2-(trifluoromethyl)pyrazolo[1,5-a]pyrimidin-5-yl)pyridin-2-amine], the mortality at 300 ppm with Nilaparvata lugens and in the test with Plutella xylostella was ≥ 70% each time.

Take `CCS(=O)(=O)c1cc(C2CC2)cnc1-c1ccn2nc(C(F)(F)F)cc2n1` [Compound 136, 5-(5-cyclopropyl-3-(ethylsulfonyl)pyridin-2-yl)-2-(trifluoromethyl)pyrazolo[1,5-a]pyrimidine]: the mortality at 300 ppm with Spodoptera litura, with Plutella xylostella and in the test on Helicoverpa armigera was ≥ 70% throughout.

For `CCS(=O)(=O)c1cc(-n2nc(C(F)(F)F)cc2C)cnc1-c1ccn2nc(C(F)(F)F)cc2n1` [Compound 38, 5-(3-(ethylsulfonyl)-5-(5-methyl-3-(trifluoromethyl)-1H-pyrazol-1-yl)pyridin-2-yl)-2-(trifluoromethyl)pyrazolo[1,5-a]pyrimidine], the mortality at 300 ppm with Spodoptera litura, in the test on Plutella xylostella and in the test with Helicoverpa armigera was ≥ 70% throughout.

Regarding `CCS(=O)(=O)c1ccc(-n2cnc(C(F)(F)F)n2)nc1-c1ccn2nc(C(F)(F)F)cc2n1` [Compound 4, 5-(3-(ethylsulfonyl)-6-(3-(trifluoromethyl)-1H-1,2,4-triazol-1-yl)pyridin-2-yl)-2-(trifluoromethyl)pyrazolo[1,5-a]pyrimidine], the mortality at 300 ppm in the test on Spodoptera litura, with Plutella xylostella and in the test on Helicoverpa armigera was ≥ 70% each time.

Regarding `CCS(=O)(=O)c1cc(-c2ccc(OC(F)(F)C(F)F)cc2)cnc1-c1ccn2nc(C(F)(F)F)cc2n1` [Compound 96, 5-(3-(ethylsulfonyl)-5-(4-(1,1,2,2-tetrafluoroethoxy)phenyl)pyridin-2-yl)-2-(trifluoromethyl)pyrazolo[1,5-a]pyrimidine], the mortality at 300 ppm in the test on Spodoptera litura, in the test with Plutella xylostella and in the test with Helicoverpa armigera was ≥ 70% in each case.

As for `CCSc1cc(Br)cnc1-c1ccnc2cc(C(F)(F)F)nn12` [Compound 11, 7-(5-bromo-3-(ethylthio)pyridin-2-yl)-2-(trifluoromethyl)pyrazolo[1,5-a]pyrimidine], the mortality at 300 ppm with Myzus persicae was ≥ 70%.

Turning to `CCS(=O)(=O)c1cccnc1-c1ccn2nc(C(F)(F)F)cc2n1` [Compound 160, 5-(3-(ethylsulfonyl)pyridin-2-yl)-2-(trifluoromethyl)pyrazolo[1,5-a]pyrimidine], the mortality at 300 ppm with Myzus persicae, in the test with Plutella xylostella and in the test with Helicoverpa armigera was ≥ 70% in each case.

With `CCS(=O)(=O)c1cc(-n2cnc(C)n2)cnc1-c1ncc2nc(C(F)(F)F)n(C)c2n1` [Compound 130, 2-(3-(ethylsulfonyl)-5-(3-methyl-1H-1,2,4-triazol-1-yl)pyridin-2-yl)-9-methyl-8-(trifluoromethyl)-9H-purine], in the test with Nilaparvata lugens, the mortality at 300 ppm is ≥ 70%.
